Measured values published in publication PMC10518421, “Zebrafish as model system for the biological characterization of CK1 inhibitors” (Frontiers in Pharmacology, 2023).
“Also recorded” adds a separate entry of the source. Like-named read-outs stand apart in the source and are kept apart here.

Key:
[1] = biological target: T1, His-DrCK1δA (Danio rerio, UniProt Q7T2E3); assay: in vitro kinase assay, α-casein phosphorylation with [γ-32P]-ATP, standard conditions; assay type: biochemical, zebrafish (Danio rerio); conditions: Michaelis-Menten, ATP 0.5-250 µM
T1 construct: made in house; host or cells: E. coli Rosetta 2 (DE3)
T1 sequence (Q7T2E3 1-403): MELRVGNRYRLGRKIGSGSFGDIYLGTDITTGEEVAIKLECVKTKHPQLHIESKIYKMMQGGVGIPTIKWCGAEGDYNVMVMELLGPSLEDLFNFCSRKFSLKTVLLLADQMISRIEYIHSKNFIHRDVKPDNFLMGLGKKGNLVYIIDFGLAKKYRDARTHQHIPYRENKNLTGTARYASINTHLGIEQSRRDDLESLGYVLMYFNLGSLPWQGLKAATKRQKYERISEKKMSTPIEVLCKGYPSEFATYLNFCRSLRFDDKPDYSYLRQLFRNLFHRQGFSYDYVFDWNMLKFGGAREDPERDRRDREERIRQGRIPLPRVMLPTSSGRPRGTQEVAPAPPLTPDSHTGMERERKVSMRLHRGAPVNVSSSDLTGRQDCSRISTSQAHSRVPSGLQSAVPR
Description: (§1) Each in vitro kinase reaction was performed in a total volume of 15 µL containing 25 mM Tris-HCl (pH 7.0), 10 mM MgCl2, 100 µM EDTA, 2.8 µM of the substrate α-casein and 0.4 pmol [γ-^32P]-ATP at 30°C. […] Reactions were stopped by adding 3 µL of 5x SDS loading buffer and incubating at 95°C for 5 min. Proteins were separated by SDS-PAGE and stained with Coomassie Brilliant Blue R250 (Waldeck GmbH & Co. KG, Muenster, Germany). Autoradiography visualized the incorporation of radioactively labelled γ-phosphate into the proteins. A quantitative analysis of the radioactive signal was performed by excising the proteins from dried gels and measuring phosphate incorporation via Cherenkov counting (Beckmann Scintillation Counter). For the determination of the initial velocity region, a linear regression was performed. Thereby, the number of included data-points was decreased stepwise, and the point of time with the highest maximum coefficient of determination (R ^2) was chosen as the kinase-specific standard reaction time. For determination of the maximal velocity (Vmax) and Michaelis constant (Km) of ATP, various ATP concentrations in a range from 0.5 to 250 µM were tested. Raw data was used for the calculation of enzyme velocity (V) in [pmol/min]. Then, V was plotted over substrate (ATP) concentration and fitted to the Michaelis-Menten model via GraphPad Prism 8 (GraphPad Software, La Jolla, CA, United States). According to the Michaelis-Menten curve, Km, which is the concentration of the substrate, that is needed to obtain half Vmax, was calculated. For determination of IC50 values, the scintillation data measured in cpm was transformed to pmol of transferred phosphate. The data was then transformed logarithmically (X = log(X)), normalized to DMSO (100%) and zero (0%) before fitting to sigmoidal dose-response curves with variable slope with nonlinear regression using GraphPad Prism 7.
(§2) In compliance with the established standard conditions the kinase assays were performed in the presence of 20 µM of the respective inhibitor (Figure 7).
(§3) Next, in vitro kinase assays were performed in absence and presence of the respective SMI at different concentrations (ranging from 13 to 26667 nM). The kinase activity of the inhibitor-treated samples was normalized to the DMSO-control and plotted against the inhibitor concentration (Figure 10).

[2] = biological target: T2, His-DrCK1δB (Danio rerio, UniProt Q6P3K7); assay: as above; assay type: biochemical, zebrafish (Danio rerio); conditions: Michaelis-Menten, ATP 0.5-250 µM
T2 construct: made in house; host or cells: E. coli Rosetta 2 (DE3)
T2 sequence (Q6P3K7 1-409): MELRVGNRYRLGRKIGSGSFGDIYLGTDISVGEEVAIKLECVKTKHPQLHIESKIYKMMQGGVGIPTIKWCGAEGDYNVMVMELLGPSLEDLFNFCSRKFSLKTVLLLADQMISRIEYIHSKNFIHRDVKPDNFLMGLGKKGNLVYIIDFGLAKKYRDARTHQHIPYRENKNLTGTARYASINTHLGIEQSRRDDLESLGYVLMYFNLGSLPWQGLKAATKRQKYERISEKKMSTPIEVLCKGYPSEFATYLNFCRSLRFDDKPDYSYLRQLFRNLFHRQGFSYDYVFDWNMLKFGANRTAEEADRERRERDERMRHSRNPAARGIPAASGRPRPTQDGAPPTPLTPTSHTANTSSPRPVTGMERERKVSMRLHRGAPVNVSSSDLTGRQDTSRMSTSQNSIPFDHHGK
Description: as §1, §2, §3

[3] = biological target: T3, GST-CK1ε (Homo sapiens, UniProt P49674); assay: as above; assay type: biochemical; conditions: Michaelis-Menten, ATP 0.5-250 µM
T3 construct: made in house; host or cells: E. coli Rosetta 2 (DE3)
Description: as §1, §2

[4] = test system: His-DrCK1ε; assay: as above; assay type: biochemical, zebrafish (Danio rerio); conditions: Michaelis-Menten, ATP 0.5-250 µM
Description: as §1, §2

[5] = biological target: T4, GST-humCK1δ^TV1 (Homo sapiens, UniProt P48730); parameters: method as in Roth et al., 2021; conditions: previously established, ref Roth et al., 2021; read-out: Km(ATP); cited from earlier work
T4 construct: made in house; host or cells: E. coli Rosetta 2 (DE3)

[6] = test system: human PKCα; parameters: method as in Qiao et al., 2021; conditions: ref Qiao et al., 2021; cited from earlier work
[7] = test system: zebrafish PKCα; parameters: method as in Qiao et al., 2021; conditions: ref Qiao et al., 2021; cited from earlier work
[8] = biological target: M28FCK1δ (rat) (Rattus norvegicus, UniProt Q06486, M82F); assay: initial IC50 determination in in vitro kinase assays, prior to standardization; assay type: biochemical
[9] = biological target: CK1δ (rat) (Rattus norvegicus, UniProt Q06486); assay: as above; assay type: biochemical; conditions: not published
Description: (§4) The SMIs used in this study (summarized in Supplementary Table S2) were selected based on their inhibitory capacity toward CK1δ in vitro, whereby a broad range of inhibitors with varying efficiency were included. The determination of IC50-values was conducted prior to the standardization workflow establishment. Zebrafish embryos treated with 20 µM of the respective compound were phenotypically analyzed.
(§5) Supplementary Table 6: List of the inhibitors that were selected for the in vivo screening of zebrafish embryonic development. The compounds were selected based on their ability to inhibit CK1δ in in vitro kinase assays. The initial IC50-values were determined prior to the establishment of the standardized in vitro kinase assay protocol. The Supplementary Table summarizes, whether the zebrafish embryos presented an abnormal phenotype upon inhibitor treatment. The inhibitors were added to the zebrafish medium in a concentration of 20 µM.

[10] = biological target: CK1ε (Homo sapiens, UniProt P49674); assay: as above; assay type: biochemical; conditions: not published, read-out: IC50 values wtCK1ε
Description: as §4, §5

[11] = test system: zebrafish embryos
Description: The TüAB wildtype strain was used for all experiments. […] Zebrafish embryos were dechorionated at 24 h post fertilization (hpf) and treated with the respective concentration of inhibitor, dissolved in DMSO (Sigma-Aldrich, Stadt, Land) and diluted in E3 medium (5 mM NaCl, 0.17 mM KCl, 0.33 mM CaCl2, 0.33 mM MgSO4, 0.6 µM Methylene Blue dissolved in water). DMSO served as solvent control. Embryos were treated from 24 hpf until 72 hpf, the compound solution was renewed daily. Pictures and movies were recorded at 48 and 72 hpf. […] Pictures were taken on an Olympus stereo microscope SZX16 and movies were recorded on an inverse Leica stereo microscope DM IL LED Fluo equipped with a FLEXACAM C1.
Embryos were dechorionated at 24 hpf and treated with 20 µM of the respective inhibitor (Figure 6A).

[12] = test system: csnk1da (CK1δA); assay: morpholino knockdown in zebrafish embryos, phenotype; assay type: in vivo, zebrafish (D. rerio); conditions: 400 µM injected, 72 hpf
From the text: The TüAB wildtype strain was used for all experiments. […] DMSO served as solvent control. […] Embryos were immobilized in 2.5% methylcellulose.

[13] = biological target: CK1δ (TV1) (Homo sapiens, UniProt P48730); assay: initial IC50 determination in in vitro kinase assays, prior to standardization; assay type: biochemical; conditions: not published
Description: as §4, §5

[14] = biological target: T5, CK1δ (TV2) (Homo sapiens, UniProt P48730); assay: as above; assay type: biochemical; conditions: not published
T5 sequence (P48730 1-409 isoform P48730-2): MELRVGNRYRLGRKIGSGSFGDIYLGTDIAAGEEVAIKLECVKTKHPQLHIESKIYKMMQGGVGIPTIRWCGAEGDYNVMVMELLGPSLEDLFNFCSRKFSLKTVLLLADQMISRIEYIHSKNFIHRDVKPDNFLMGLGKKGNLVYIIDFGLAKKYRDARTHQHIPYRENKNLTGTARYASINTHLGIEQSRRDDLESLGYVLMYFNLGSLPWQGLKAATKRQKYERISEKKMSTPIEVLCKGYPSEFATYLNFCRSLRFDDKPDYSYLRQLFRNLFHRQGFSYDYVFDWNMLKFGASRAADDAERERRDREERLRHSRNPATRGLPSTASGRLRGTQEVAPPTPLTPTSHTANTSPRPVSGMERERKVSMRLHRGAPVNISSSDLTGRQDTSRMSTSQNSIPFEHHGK
Description: as §4, §5

M28FCK1δ (rat), sequence (Q06486 whole entry M82F): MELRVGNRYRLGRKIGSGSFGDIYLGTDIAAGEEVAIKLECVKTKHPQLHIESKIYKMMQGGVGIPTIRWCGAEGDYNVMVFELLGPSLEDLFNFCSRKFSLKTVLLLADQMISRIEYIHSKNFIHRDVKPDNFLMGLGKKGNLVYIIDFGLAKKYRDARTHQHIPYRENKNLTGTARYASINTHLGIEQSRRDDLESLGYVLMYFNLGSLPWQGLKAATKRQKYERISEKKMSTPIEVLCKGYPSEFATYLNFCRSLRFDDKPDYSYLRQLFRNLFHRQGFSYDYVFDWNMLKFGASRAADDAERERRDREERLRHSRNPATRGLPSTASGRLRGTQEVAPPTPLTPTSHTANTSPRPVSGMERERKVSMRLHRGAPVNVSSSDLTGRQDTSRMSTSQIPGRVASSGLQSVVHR
CK1δ (rat), sequence (Q06486 whole entry): as the sequence (Q06486 whole entry M82F) above, with F82M counted along it
CK1ε, sequence (P49674 whole entry): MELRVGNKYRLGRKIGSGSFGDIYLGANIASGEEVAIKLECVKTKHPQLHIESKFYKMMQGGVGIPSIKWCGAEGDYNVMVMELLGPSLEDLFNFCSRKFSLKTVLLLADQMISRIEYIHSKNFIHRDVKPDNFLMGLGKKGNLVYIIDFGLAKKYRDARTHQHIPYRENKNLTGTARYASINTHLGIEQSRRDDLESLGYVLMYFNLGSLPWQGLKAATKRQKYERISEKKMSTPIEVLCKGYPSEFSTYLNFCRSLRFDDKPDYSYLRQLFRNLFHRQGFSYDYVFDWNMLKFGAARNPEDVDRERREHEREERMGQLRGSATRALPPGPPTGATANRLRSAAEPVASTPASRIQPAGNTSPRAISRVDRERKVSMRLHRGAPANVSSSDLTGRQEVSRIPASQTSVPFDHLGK
CK1δ (TV1), sequence (P48730 whole entry): as the sequence (Q06486 whole entry M82F) above, with F82M, V381I counted along it
T4 sequence (P48730 whole entry): as the sequence (Q06486 whole entry M82F) above, with F82M, V381I counted along it
T3 sequence (P49674 whole entry): as the sequence (P49674 whole entry) above

Compound: Nc1ncnc2c1ncn2[C@@H]1O[C@H](COP(=O)(O)OP(=O)(O)OP(=O)(O)O)[C@@H](O)[C@H]1O [ATP]
- Km [1]: 12 µM
- Km [2]: 5.31 µM
- Km [3]: 15.4 µM
- Km [4]: 14.5 µM
- Km [5]: 6 µM

Compound: O=S(=O)(NCCNC/C=C/c1ccc(Br)cc1)c1cccc2cnccc12 [H89]
- IC50 [6]: 31.2 µM
- IC50 [7]: 49.8 µM

Compound: COc1cc(Cn2c(SCC(=O)Nc3nc4ccc(C(F)(F)F)cc4s3)nc3c(c2=O)SCC3)cc(OC)c1 [G1-4, 2-((3-(3,5-Dimethoxybenzyl)-4-oxo-3,4,6,7-tetrahydrothieno[3,2-d]pyrimidin-2-yl)thio)-N-(6-(trifluormethyl)benzo [d]thiazol-2-yl)acetamid]
- IC50 ([8]; prior to standardization, not published, read-out: IC50 values M28FCK1δ (rat)): 0.16 µM
- IC50 [9]: 0.38 µM
- IC50 [10]: 3.2 µM
- Phenotypic changes ([11]; zebrafish, in vivo): None observed
- Phenotypic changes (with severity) after treatment of zebrafish embryos with 20 µM inhibitor ([11]; zebrafish, in vivo): No

Compound: csnk1da: morpholino-modified antisense oligonucleotide targeting the translational start site of csnk1da, 5′-TCGGTTTCCTACTCTCAATTCCATG-3′ (all phosphorodiamidate morpholino (PMO))
- phenotype of morpholino injected embryos [12]: reduced heart function resulting in blood congestion; also recorded: cardiac malfunction

Compound: CC(C)n1c(SCC(=O)Nc2nc3ccc(C(F)(F)F)cc3s2)nc2c(c1=O)SCC2 [G1-5, 2-((3-Isopropyl-4-oxo-3,4,6,7-tetrahydrothieno[3,2-d]pyrimidin-2-yl)thio)-N-(6-(trifluormethyl)benzo [d]thiazol-2-yl)acetamid]
- IC50 [8]: 0.12 µM
- IC50 [13]: 0.38 µM
- IC50 [14]: 0.51 µM
- IC50 [9]: 0.16 µM
- IC50 [10]: 0.78 µM
- Phenotypic changes (with severity) after treatment of zebrafish embryos with 20 µM inhibitor ([11]; 20 µM in medium, from 24 hpf): Yes (mild)
- phenotype of treated zebrafish embryos ([11]; 20 µM, 24 to 72 hpf (48 h)): weak effect on heart development and function with a mild bradycardia and reduced heart rate; also recorded: a curved tail
